{
  "source": "patent US20090074850A1",
  "about": "“USE OF A TOPICAL COMPOSITION CONTAINING EPIDERMAL GROWTH FACTOR (EGF) FOR DIABETIC FOOT AMPUTATION PREVENTION” (priority 2005, published 2009)",
  "key": {"[1]": {"system": "diabetic foot ulcers, grade IV and V lesions with a severe ischemic component", "conditions": "EGF infiltrated in and around lesions with hypodermic needles; cited from earlier work"}, "[2]": {"assay": "Concentration of EGF in the viable tissue deep below the cutaneous lesions (ELISA)", "assay_type": "in vivo, Wistar rats", "conditions": "tissue 1 cm below lesion", "procedure": "To determine the concentration of EGF, histological cuts of the tissue deep below (1 cm) the cutaneous lesions were performed 20 min, 1 h, 4 h, 8 h, 16 h and 24 h after the induction of lesions. The tissue was homogenized into a phosphate-buffered saline solution. The concentration of EGF was determined by an Enzyme Linked Immunosorbent Assay (ELISA)."}, "[3]": {"system": "chronic ulcers in male Wistar rats treated with methylglyoxal", "assay": "Experimental model of chronic cutaneous ulcers (methylglyoxal-treated rats)", "assay_type": "in vivo", "procedure": "The following experiment was aimed at evaluating the cicatrisation effect of the new pharmaceutical formulation of topical use that is based on traditional or deformable liposomes containing EGF in chronic lesions of poor prognosis, which simulate lesions in diabetic patients.\nExperimental Biomodel Male Wistar rats with a body weight of 225-250 grams. Animal were maintained in controlled areas of the animal facility at CIGB under a constant illumination schedule of 12×12 hours, air change cycles, and free access to the diet. The rats were individually housed into T3 boxes with replacement of the bedding every 48 hours after its sterilization. The animals had previously been treated for two months with a 0.01% methylglyoxal solution to create a glycosylation environment similar to that occurring in a diabetic patient of long term evolution. Among other organic damages, this leads to a slow down of the granulation and remodelation of wounds (Berlanga J., Cibrian D., et al. (2005) Methylglyoxal administration induces diabetes-like microvascular changes and perturbs the healing process of cutaneous wounds. Clin Sci (Lond). 109(1):83-95).\n(§1) Induction of ulcers: Animals were anesthetized by intraperitoneal injection of ketamine/xylazine. The back of rats comprising the area from the retroscapular space up to the sacrum was mechanically and chemically depilated. This region was aseptisized with a solution of povidone-iodine and isopropyl alcohol. The area over the skin selected for the induction of ulcers was marked with Chinese ink in order to induce circular, total width lesions with the aid of 9 mm-diameter biotomes (AcuDrem, Fl, USA). […] Lesions were washed with a sterile saline solution and their inner border was delineated with permanent ink for later calculation of wound area at time zero. The lesions of all animals were hygienized daily with 70% ethanol and sterile saline before the application of any treatment.\n(§2) The ulcers created in the animals were randomly assigned to the following experimental treatment groups by using an input order/group crossmatching table:\n(§3) Group I—no treatment. Group II—placebo (formulation of empty deformable liposomes—without EGF) applied topically.\n(§4) Group III—infiltration of an EGF solution containing 75 micrograms per milliliter by using hypodermic needles. Infiltrations were performed on the border and the bottom of wounds\n(§5) Group IV—treatment with the formulation of traditional liposomes containing 25 micrograms of EGF per gram of substance applied topically Group V—treatment with the formulation of traditional liposomes containing 75 micrograms of EGF per gram of substance applied topically Group VI—treatment with the formulation of deformable liposomes containing 25 micrograms of EGF per gram of substance applied topically Group VII—treatment with the formulation of deformable liposomes containing 75 micrograms of EGF per gram of substance applied topically\n(§6) Each group consisted of 10 rats; therefore 60 wounds per group were studied. Treatments were performed daily, after sedation of animals with diazepam administrated by the intra-peritoneal route.\nThe lesions were traced on transparent acetate sheets for calculating the kinetics of the wounds contraction over the following times: Time 0—represents 100% of opened lesion area and 0% wound contraction, Time 1—72 hours after the induction of lesions, Time 2—five days after the induction of lesions, Time 3—seven days after the induction of lesions, […], on which the animals were sacrificed, according to previous experiences on the kinetics of the spontaneous cicatrisation of these lesions. The images with traced lesions borders were digitized. The area of lesions and the percent of contraction were calculated by using the image analysis software DIGIPAT. Statistical analyses of each parameter were performed with the SPSS package by using the non-parametric Mann Whitney U test, a signification level of p<0.05 was assumed. […]"}, "[4]": {"system": "controlled acute ulcers in male Wistar rats", "assay": "Experimental model of controlled acute lesions", "assay_type": "in vivo", "procedure": "The following experiment was performed with the aim of evaluating the cicatrisation effect of the new pharmaceutical formulation for topical use, which is based on EGF-loaded (deformable or traditional) liposomes, in acute lesions of satisfactory prognosis.\nas §1, with “Experimental Biomodel Male Wistar rats with a body weight of 225-250 grams. Animal were maintained in controlled areas of the animal facility at CIGB under a constant illumination schedule of 12×12 hours, air change cycles, and free access to the diet. The rats were individually housed into T3 boxes with replacement of the bedding every 48 hours after its sterilization. Induction” for “Induction”\nas §2, §3, §4\nas §5, with “V—treatment” for “VI—treatment”\nas §6\nThe lesions were traced on transparent acetate sheets for calculating the kinetics of the wounds contraction over the following times: Time 0—represents 100% of opened lesion area and 0% wound contraction, Time 1—72 hours after the induction of lesions, Time 2—five days after the induction of lesions, Time 3—seven days after the induction of lesions, Time 4—nine days after the induction of lesions. The ninth day was set as the end of this study, on which the animals were sacrificed, according to previous experiences on the kinetics of the spontaneous cicatrisation of these lesions. The images with traced lesions borders were digitized. The area of lesions and the percent of contraction were calculated by using the image analysis software DIGIPAT. Statistical analyses of each parameter were performed with the SPSS package by using the non-parametric Mann Whitney U test, a signification level of p<0.05 was assumed.\nAnimals were sacrificed by intra-peritoneal injection with an overdose of sodium pentobarbital (250 mg/kg). Lesion were dried up from the panniculus carnosus and fixed in 10% neutral formalin for later inclusion in paraffin. The hematoxylin/eosin, van Giesson's and Masson's trichromic stains were used. For each group, the number of animals with 100% epithelization of the lesion, and with a stratified and differentiated epidermis was determined. […]"}},
  "note": "Marks after values point to notes of the source that are not given here.",
  "data": [
    {"substance": "epidermal growth factor (EGF) [Free EGF, non-encapsulated epidermal growth factor]", "values": [
      {"measurement": "efficacy", "setting": "[1]", "value": "greater than 50%"}
    ]},
    {"substance": "Group III: infiltration of an EGF solution containing 75 micrograms per milliliter by using hypodermic needles", "values": [
      {"measurement": "EGF concentration", "setting": "[2]; 20 min", "value": "27.55 ± 0.14", "unit": "µg/mL"},
      {"measurement": "EGF concentration", "setting": "[2]; 1 h", "value": "5.47 ± 0.1", "unit": "µg/mL"},
      {"measurement": "EGF concentration", "setting": "[2]; 4 h", "value": "1.55 ± 0.1", "unit": "µg/mL"},
      {"measurement": "EGF concentration", "setting": "[2]; 8 h", "value": "0.26 ± 0.04", "unit": "µg/mL"},
      {"measurement": "EGF concentration", "setting": "[2]; 16 h", "value": "0.07 ± 0.01", "unit": "µg/mL"},
      {"measurement": "EGF concentration", "setting": "[2]; 24 h", "value": "0.02 ± 0.005", "unit": "µg/mL"},
      {"measurement": "No. wounds with 100% epithelization", "setting": "[3]; 60 wounds per group", "value": 16},
      {"measurement": "No. wounds with a mature epithelium", "setting": "[3]; 60 wounds per group", "value": 11},
      {"measurement": "Contraction (%)", "setting": "[3]; Time 1", "value": "6.55 ± 1.14", "unit": "%"},
      {"measurement": "Contraction (%)", "setting": "[3]; Time 2", "value": "10.25 ± 3.1", "unit": "%"},
      {"measurement": "Contraction (%)", "setting": "[3]; Time 3", "value": "25 ± 2.7", "unit": "%"},
      {"measurement": "Contraction (%)", "setting": "[3]; Time 4", "value": "53.5 ± 3.5", "unit": "%"},
      {"measurement": "% area covered by mature granulation tissue", "setting": "[3]; Time 4, 60 wounds per group", "value": "41.7 ± 2.25", "unit": "%"},
      {"measurement": "Contraction (%)", "setting": "[3]; Time 6", "value": "61.7 ± 2.14", "unit": "%"},
      {"measurement": "No. wounds with 100% epithelization", "setting": "[4]; 60 wounds per group", "value": 37},
      {"measurement": "No. wounds with a mature epithelium", "setting": "[4]; 60 wounds per group", "value": 25},
      {"measurement": "Contraction (%)", "setting": "[4]; Time 1 (72 hours after induction of lesions)", "value": "12.3 ± 2.1*^a %"},
      {"measurement": "Contraction (%)", "setting": "[4]; Time 2 (five days)", "value": "23 ± 2.7*^a %"},
      {"measurement": "Contraction (%)", "setting": "[4]; Time 3 (seven days)", "value": "67.5 ± 3.1*^a %"},
      {"measurement": "Contraction (%)", "setting": "[4]; Time 4 (nine days)", "value": "76.5 ± 2.2*^a %"},
      {"measurement": "% area covered by mature granulation tissue", "setting": "[4]; Time 4, 60 wounds per group", "value": "66.7 ± 3.22", "unit": "%"}
    ]}
  ]
}
